Drawing on BindingDB's records for PubMed 20126400 (University of Oklahoma, 2010), this text covers Ki and IC50 for 2 compounds.

One assay concerns the target D(3) dopamine receptor (Bos taurus, UniProt F1N454). Put plainly: Ray2010 Assay 33. The source says: 7-OH-DPAT caudate .
Assay [1] concerns the target T1, Muscarinic acetylcholine receptor M2 (Rattus norvegicus, UniProt P10980). Put plainly: Ray2010 Assay 50. An excerpt:
AF-DX384 forebrain .

Assay [2] deals with T2, Glutamate receptor ionotropic, NMDA 2D (Rattus norvegicus, UniProt Q62645). Put plainly: Ray2010 Assay 69. The source says: dizocilpine forebrain .
Assay [3] addresses T2, Glutamate receptor ionotropic, NMDA 2D. Kind of assay: Ray2010 Assay 67. The source says: MK-801 cerebellum .
The target of a further assay is D(2) dopamine receptor (Homo sapiens, UniProt P14416). Put plainly: Ray2010 Assay 32. The source says:
YM 09191-2 cloned PDSP web; .

Assay [4] addresses Muscarinic acetylcholine receptor (UniProt F1N5C5). Put plainly: Ray2010 Assay 45. An excerpt: pirenzepine hippocampus .
For assay [5], the target named is Beta-1 adrenergic receptor (Rattus norvegicus, UniProt P18090). Put plainly: Ray2010 Assay 35. The source says: dihydro-alprenalol HCL cortex .
Assay [6] addresses T2, Glutamate receptor ionotropic, NMDA 2D. Put plainly: Ray2010 Assay 62. An excerpt:
MK-801 hippocampus .

For assay [7] the target is unchanged. Kind of assay: Ray2010 Assay 66. An excerpt: MK-801 midbrain .
For assay [8], the target named is Muscarinic acetylcholine receptor M3 (Rattus norvegicus, UniProt P08483). Kind of assay: Ray2010 Assay 48. The source says:
(§1) N-methylacoblamine forebrain .

The target in assay [9] is T1, Muscarinic acetylcholine receptor M2. Kind of assay: Ray2010 Assay 48.
Source text: as §1

For assay [10], the target named is Sigma non-opioid intracellular receptor 1 (Cavia porcellus, UniProt Q60492). Put plainly: Ray2010 Assay 39. The source says: (+)-pentazocine brain Mach et al.1995.
The target in a further assay is Mu-type opioid receptor (Bos taurus, UniProt P79350). Put plainly: Ray2010 Assay 55. The source says:
DAGO cortex .

The next assay concerns the target T3, D(4) dopamine receptor (Homo sapiens, UniProt P21917).
T3 sequence (P21917 whole entry): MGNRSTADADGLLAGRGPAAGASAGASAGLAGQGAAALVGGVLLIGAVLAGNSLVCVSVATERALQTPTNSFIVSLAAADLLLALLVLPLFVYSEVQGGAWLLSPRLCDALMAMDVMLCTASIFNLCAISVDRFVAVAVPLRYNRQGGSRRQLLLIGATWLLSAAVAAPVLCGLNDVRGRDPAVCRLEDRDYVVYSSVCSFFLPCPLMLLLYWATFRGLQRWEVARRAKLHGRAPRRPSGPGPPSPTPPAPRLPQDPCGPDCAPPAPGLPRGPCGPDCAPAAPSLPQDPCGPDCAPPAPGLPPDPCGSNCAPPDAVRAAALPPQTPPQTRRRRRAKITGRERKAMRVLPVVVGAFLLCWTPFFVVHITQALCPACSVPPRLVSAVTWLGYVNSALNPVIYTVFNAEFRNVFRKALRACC
Put plainly: Ray2010 Assay 34. The source says:
spiperone cloned .

The target in assay [11] is Sigma intracellular receptor 2 (Rattus norvegicus, UniProt Q5U3Y7). Kind of assay: Ray2010 Assay 42.
Source text: DTG liver .

For assay [12], the target named is T2, Glutamate receptor ionotropic, NMDA 2D. Put plainly: Ray2010 Assay 64. The source says: MK-801 Thalamus + hypothalamus .
Assay [13] addresses Sigma non-opioid intracellular receptor 1 (UniProt Q58DH7). Kind of assay: Ray2010 Assay 40. The source says:
(+)-pentazocine caudate .

Assay [14] has as its target T4, 5-hydroxytryptamine receptor 1A (Homo sapiens, UniProt P08908).
T4 sequence (P08908 whole entry): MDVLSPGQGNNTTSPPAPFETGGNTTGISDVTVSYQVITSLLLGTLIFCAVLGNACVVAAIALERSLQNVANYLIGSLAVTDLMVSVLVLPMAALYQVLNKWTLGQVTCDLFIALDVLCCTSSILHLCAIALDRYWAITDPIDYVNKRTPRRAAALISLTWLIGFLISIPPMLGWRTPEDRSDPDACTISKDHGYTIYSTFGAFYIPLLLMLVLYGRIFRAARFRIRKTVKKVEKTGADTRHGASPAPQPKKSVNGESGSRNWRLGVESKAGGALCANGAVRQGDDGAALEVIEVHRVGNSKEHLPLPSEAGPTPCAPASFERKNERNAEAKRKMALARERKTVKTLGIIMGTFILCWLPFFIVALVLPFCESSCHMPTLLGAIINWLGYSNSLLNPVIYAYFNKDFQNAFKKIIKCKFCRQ
Put plainly: Ray2010 Assay 28. An excerpt:
8-oh-dpat cloned PDSP web; .

The target in assay [15] is Muscarinic acetylcholine receptor M1 (Rattus norvegicus, UniProt P08482). Kind of assay: Ray2010 Assay 47. An excerpt:
pirenzepine forebrain .

Assay [16] addresses Neuronal acetylcholine receptor subunit alpha-4/beta-4 (Homo sapiens, UniProt P43681+P30926). Put plainly: Ray2010 Assay 74. An excerpt:
(§2) Table S2 shows raw Ki data for the current study combined with data collected from the literature for the ten additional compounds.

Assay [17] addresses Neuronal acetylcholine receptor subunit alpha-4/beta-2 (Homo sapiens, UniProt P43681+P17787). Kind of assay: Ray2010 Assay 74.
Source text: as §2

Where “and” joins values, the source holds several entries; their conditions need not be identical. Identical values can stand only once.

The Ki is a dissociation constant, usually derived from enzyme kinetics or from competition with a known ligand. Read a low Ki as higher affinity. As a reminder, the IC50 is the concentration that inhibits the measured activity by half.

T2 sequence (Q62645 whole entry): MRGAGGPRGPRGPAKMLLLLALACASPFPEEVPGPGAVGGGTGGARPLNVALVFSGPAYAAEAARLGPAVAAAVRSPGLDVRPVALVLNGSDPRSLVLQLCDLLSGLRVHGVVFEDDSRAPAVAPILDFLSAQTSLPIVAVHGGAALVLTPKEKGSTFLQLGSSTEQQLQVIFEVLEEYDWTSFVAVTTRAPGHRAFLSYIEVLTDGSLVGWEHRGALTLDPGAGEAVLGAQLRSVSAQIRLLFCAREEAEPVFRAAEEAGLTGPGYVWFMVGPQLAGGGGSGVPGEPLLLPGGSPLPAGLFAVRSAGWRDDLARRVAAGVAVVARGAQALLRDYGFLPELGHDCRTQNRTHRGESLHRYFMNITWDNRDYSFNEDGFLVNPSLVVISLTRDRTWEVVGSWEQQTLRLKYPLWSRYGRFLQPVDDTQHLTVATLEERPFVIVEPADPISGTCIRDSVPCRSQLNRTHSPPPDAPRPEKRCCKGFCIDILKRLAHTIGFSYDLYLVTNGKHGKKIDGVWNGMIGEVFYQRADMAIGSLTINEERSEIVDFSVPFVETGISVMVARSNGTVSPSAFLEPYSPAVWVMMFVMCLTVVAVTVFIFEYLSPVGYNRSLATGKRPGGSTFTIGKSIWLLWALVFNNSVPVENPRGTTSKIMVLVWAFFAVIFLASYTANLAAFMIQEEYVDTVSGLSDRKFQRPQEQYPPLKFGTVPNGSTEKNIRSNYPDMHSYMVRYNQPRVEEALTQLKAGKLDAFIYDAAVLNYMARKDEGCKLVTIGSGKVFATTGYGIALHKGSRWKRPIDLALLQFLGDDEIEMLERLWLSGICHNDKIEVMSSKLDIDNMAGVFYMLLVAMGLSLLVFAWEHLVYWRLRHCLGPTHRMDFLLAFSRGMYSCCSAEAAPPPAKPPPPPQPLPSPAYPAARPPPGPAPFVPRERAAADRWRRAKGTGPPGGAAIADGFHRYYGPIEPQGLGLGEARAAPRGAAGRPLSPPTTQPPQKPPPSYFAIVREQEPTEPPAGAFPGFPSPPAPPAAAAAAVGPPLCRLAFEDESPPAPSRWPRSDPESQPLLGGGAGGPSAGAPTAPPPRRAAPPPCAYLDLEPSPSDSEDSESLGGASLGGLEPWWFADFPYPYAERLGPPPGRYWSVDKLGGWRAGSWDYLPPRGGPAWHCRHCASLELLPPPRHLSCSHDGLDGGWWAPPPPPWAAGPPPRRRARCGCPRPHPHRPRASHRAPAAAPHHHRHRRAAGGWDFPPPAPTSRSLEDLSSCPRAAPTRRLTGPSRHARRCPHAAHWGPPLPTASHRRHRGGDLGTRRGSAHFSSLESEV
T1 sequence (P10980 whole entry): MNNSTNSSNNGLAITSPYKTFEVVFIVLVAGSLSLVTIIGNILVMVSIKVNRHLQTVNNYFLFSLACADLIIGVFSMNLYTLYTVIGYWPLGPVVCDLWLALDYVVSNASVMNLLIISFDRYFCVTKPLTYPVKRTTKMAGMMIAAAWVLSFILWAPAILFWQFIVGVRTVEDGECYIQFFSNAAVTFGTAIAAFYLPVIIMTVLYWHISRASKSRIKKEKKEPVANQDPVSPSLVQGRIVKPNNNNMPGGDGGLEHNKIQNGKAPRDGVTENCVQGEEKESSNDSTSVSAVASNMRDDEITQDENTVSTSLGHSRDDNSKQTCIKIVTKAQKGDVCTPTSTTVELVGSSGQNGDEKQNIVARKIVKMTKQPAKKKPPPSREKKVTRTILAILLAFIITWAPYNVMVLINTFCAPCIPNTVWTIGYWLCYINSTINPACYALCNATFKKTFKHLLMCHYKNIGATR
Sequence of Mu-type opioid receptor (P79350 whole entry): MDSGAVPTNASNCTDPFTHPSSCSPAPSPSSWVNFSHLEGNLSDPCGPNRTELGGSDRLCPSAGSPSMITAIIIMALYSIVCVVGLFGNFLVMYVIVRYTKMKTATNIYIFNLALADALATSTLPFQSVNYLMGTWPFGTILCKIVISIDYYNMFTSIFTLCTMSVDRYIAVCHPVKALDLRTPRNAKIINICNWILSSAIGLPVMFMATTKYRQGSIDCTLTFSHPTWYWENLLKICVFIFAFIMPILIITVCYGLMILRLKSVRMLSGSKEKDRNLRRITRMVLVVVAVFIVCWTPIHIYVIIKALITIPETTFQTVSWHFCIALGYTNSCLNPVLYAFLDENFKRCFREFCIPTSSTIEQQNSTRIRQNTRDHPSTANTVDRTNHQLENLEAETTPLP
Sequence of Muscarinic acetylcholine receptor M1 (P08482 whole entry): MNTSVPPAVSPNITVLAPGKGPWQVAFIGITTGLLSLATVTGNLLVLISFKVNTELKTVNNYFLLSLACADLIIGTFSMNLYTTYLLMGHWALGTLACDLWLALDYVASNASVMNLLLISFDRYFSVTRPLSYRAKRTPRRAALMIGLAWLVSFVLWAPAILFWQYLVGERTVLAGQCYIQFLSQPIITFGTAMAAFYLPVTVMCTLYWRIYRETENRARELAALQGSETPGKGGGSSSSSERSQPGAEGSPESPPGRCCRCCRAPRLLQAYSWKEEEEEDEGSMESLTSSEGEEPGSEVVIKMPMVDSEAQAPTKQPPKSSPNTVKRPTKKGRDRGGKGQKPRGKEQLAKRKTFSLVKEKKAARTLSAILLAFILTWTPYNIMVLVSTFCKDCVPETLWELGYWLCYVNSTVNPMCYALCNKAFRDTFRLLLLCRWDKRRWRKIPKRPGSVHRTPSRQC
Sequence of Sigma intracellular receptor 2 (Q5U3Y7 whole entry): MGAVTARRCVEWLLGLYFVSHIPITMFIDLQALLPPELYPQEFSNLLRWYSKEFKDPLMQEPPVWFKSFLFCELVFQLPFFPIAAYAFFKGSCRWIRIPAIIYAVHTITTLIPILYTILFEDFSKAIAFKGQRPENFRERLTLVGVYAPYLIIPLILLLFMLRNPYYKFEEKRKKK
Sequence of D(2) dopamine receptor (P14416 whole entry): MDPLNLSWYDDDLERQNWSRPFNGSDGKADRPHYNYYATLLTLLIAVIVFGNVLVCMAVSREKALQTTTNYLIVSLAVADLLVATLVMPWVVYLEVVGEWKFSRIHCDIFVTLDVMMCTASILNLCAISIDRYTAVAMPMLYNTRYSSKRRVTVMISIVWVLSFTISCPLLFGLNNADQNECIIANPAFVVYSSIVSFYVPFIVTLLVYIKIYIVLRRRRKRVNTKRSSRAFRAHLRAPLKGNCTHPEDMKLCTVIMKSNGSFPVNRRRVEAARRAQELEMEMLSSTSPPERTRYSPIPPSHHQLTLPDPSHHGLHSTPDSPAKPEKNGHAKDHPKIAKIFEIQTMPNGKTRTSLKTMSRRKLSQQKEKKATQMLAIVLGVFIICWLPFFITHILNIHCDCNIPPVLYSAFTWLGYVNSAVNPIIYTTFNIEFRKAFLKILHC
Sequence of Muscarinic acetylcholine receptor (F1N5C5 whole entry): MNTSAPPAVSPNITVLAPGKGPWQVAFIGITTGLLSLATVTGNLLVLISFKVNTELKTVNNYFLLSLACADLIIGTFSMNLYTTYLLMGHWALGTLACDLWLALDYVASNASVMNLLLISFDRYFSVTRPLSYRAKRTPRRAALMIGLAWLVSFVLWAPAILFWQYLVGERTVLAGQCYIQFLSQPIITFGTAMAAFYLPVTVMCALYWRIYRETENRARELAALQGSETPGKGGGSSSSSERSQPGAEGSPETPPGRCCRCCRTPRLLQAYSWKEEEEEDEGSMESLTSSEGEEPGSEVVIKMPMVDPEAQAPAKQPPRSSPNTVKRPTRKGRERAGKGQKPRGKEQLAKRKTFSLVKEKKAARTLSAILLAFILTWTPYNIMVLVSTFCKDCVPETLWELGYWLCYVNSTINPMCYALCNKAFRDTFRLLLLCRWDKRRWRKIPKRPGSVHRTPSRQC
Sequence of Neuronal acetylcholine receptor subunit alpha-4/beta-4 (P43681 whole entry): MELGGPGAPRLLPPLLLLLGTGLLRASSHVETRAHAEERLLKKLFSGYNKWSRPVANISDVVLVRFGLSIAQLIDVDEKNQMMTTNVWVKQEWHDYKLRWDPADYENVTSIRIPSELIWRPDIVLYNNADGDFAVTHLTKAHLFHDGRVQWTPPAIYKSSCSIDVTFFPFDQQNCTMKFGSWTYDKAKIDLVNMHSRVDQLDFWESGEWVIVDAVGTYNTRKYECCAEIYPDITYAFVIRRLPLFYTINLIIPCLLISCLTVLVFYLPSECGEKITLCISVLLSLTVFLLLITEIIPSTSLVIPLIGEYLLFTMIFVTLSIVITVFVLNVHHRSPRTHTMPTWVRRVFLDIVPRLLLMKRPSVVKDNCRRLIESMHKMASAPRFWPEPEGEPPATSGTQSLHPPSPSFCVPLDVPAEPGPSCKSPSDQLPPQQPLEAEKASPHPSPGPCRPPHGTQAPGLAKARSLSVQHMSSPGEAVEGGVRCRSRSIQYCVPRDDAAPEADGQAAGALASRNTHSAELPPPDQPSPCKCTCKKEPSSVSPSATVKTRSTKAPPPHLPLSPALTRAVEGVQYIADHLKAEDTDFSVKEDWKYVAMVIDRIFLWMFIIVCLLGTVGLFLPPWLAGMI
Sequence of Neuronal acetylcholine receptor subunit alpha-4/beta-4 (P30926 whole entry): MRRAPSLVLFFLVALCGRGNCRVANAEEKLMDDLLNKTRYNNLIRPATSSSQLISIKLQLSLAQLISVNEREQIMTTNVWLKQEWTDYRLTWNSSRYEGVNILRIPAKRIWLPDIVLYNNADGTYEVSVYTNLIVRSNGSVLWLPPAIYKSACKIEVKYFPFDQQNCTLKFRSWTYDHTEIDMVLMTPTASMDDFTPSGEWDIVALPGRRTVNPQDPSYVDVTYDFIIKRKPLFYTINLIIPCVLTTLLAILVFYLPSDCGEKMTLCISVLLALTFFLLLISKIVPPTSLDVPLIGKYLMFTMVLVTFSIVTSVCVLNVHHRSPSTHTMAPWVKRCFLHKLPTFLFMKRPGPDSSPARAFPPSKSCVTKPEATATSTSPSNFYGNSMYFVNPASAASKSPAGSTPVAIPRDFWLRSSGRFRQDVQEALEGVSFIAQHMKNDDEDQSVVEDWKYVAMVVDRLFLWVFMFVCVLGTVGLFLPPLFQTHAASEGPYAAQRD

For the compound `CC[C@H]1C[C@@H]2C[C@H]3c4[nH]c5ccc(OC)cc5c4CCN(C2)[C@@H]13`, the Ki on D(3) dopamine receptor was 70 µM; in [3] it was 3.31 µM; on D(2) dopamine receptor, greater than 10 µM; in assay [4] it was 31.6 µM; in assay [5], greater than 100 µM; in [6], 1.19 µM. In addition, the Ki is 2.46 µM in assay [7]; 12.5 µM in assay [8]; 50.1 µM in assay [9]; 9.31 µM in [10]; 11 µM and 2 µM on Mu-type opioid receptor; 0.0904 µM in [11]. Besides, the Ki was 1.98 µM in assay [12], 2.5 µM in assay [13] and greater than 10 µM in [14]. Also, the IC50 in assay [1] is 5.9 µM; in assay [2], 3.2 µM; on D(4) dopamine receptor, greater than 100 µM; in [15], 7.6 µM.

As to “CAS_82830-44-2::(2R)-1-(4-iodo-2,5-dimethoxyphenyl)propan-2-amine::DOI,(-)::US20250270173, Compound DOI”, the Ki in assay [16] and in assay [17] was greater than 10 µM throughout.
